“And” between values parts separate entries of the source, which are not always exact repeats. Equal entries are not always repeated. Where two headings read alike, the source gives them in different places.
How the values were obtained:
[1] = tested on: Mythimna separate (Walker); test: Insecticidal activity against Mythimna separate (Walker); format: in vivo; conditions: for pest or weed control at 100 µg/mL: Mythimna, read-out: insecticidal activity, Mythimna separate (Walker)
[2] = tested on: Helicoverpa armigera (Hübner); test: Insecticidal activity against Helicoverpa armigera (Hübner); format: in vivo; conditions: for pest or weed control at 100 µg/mL: Helicoverpa armigera, read-out: insecticidal activity, Helicoverpa armigera (Hübner)
Ostrinia furnacalis = test: Insecticidal activity against Ostrinia furnacalis; format: in vivo; conditions: for pest or weed control at 100 µg/mL: Ostrinia furnacalis, read-out: insecticidal activity, Ostrinia furnacalis
Caenorhabditis elegans = test: Insecticidal activity against Caenorhabditis elegans; format: in vivo; conditions: for pest or weed control at 100 µg/mL: Caenorhabditis elegans, read-out: insecticidal activity, Caenorhabditis elegans
Alternaria solani = test: Fungicidal activity, fungicide growth rate method, AS; format: cell-based; conditions: 50 μg/mL; for inhibition at 50 µg/mL: Alternaria solani, read-out: fungicidal activity (growth inhibition rate), AS
Botrytis cinerea = test: Fungicidal activity, fungicide growth rate method, BC; format: cell-based; conditions: 50 μg/mL; for inhibition at 50 µg/mL: Botrytis cinerea, read-out: fungicidal activity (growth inhibition rate), BC
Cercospora arachidicola = test: Fungicidal activity, fungicide growth rate method, CA; format: cell-based; conditions: 50 μg/mL; for inhibition at 50 µg/mL: Mycosphaerella arachidis, read-out: fungicidal activity (growth inhibition rate), CA
wheat Gibberella zeae = test: microbe, parasite or virus in culture; format: cell-based; conditions: for inhibition at 50 µg/mL: Fusarium graminearum, read-out: fungicidal activity (growth inhibition rate), GZ, 50 μg/mL; for fungicidal activity (growth inhibition rate), GZ: 50 μg/mL
[3] = tested on: Phytophthora infestans (Mont.) de Bary; test: microbe, parasite or virus in culture; format: cell-based; conditions: for inhibition at 50 µg/mL: Phytophthora infestans, read-out: fungicidal activity (growth inhibition rate), PI, 50 μg/mL
Physalospora piricola = test: Fungicidal activity, fungicide growth rate method, PP; format: cell-based; conditions: 50 μg/mL; for inhibition at 50 µg/mL: read-out: fungicidal activity (growth inhibition rate), PP
Pellicularia sasakii = test: Fungicidal activity, fungicide growth rate method, PS; format: cell-based; conditions: 50 μg/mL; for inhibition at 50 µg/mL: read-out: fungicidal activity (growth inhibition rate), PS
Rhizoctonia cerealis = test: Fungicidal activity, fungicide growth rate method, RC; format: cell-based; conditions: 50 μg/mL; for inhibition at 50 µg/mL: Ceratobasidium cereale, read-out: fungicidal activity (growth inhibition rate), RC
Sclerotinia sclerotiorum = test: Fungicidal activity, fungicide growth rate method, SS; format: cell-based; conditions: 50 μg/mL; for inhibition at 50 µg/mL: Sclerotinia sclerotiorum
Tobacco Mosaic Virus = test: Anti-TMV inactivation activity on tobacco plants; format: in vivo; design: concentration or dose not given beside the values; conditions: compound mixed with TMV solution 30 minutes, lesions checked three days later
[4] = tested on: Apis mellifera ligustica Spin; conditions: for Death number after 24 h / Death number after 48 h: per replicate of 10 bees

Structure (SMILES) | pest or weed control at 100 µg/mL ([1]; 100 μg/mL) | pest or weed control at 100 µg/mL ([2]; 100 μg/mL) | pest or weed control at 100 µg/mL (Ostrinia furnacalis; 100 μg/mL) | pest or weed control at 100 µg/mL (Caenorhabditis elegans; 100 μg/mL) | inhibition at 50 µg/mL (Alternaria solani) | inhibition at 50 µg/mL (Botrytis cinerea) | inhibition at 50 µg/mL (Cercospora arachidicola) | inhibition at 50 µg/mL (wheat Gibberella zeae) | inhibition at 50 µg/mL [3] | inhibition at 50 µg/mL (Physalospora piricola) | inhibition at 50 µg/mL (Pellicularia sasakii) | inhibition at 50 µg/mL (Rhizoctonia cerealis) | inhibition at 50 µg/mL (Sclerotinia sclerotiorum) | TMV inactivation (anti-TMV activity) (Tobacco Mosaic Virus) | also measured
C=CC[C@@H]1C[C@]2(OC(C)=O)C[C@H](OC(C)=O)O[C@@]23CC=CC[C@H]13 [Zyj07-37-2] | 20% | 15% | 0% | 13% | 22% | 18% | 27% | 3% | 21% | 31% | 18% | 21% | > 50% | 28% | –
CCOC(=O)C(C(=O)OCC)C1CC(=O)[C@@]2(O)CC=CC[C@H]12 (stereo partly drawn) [Zyj06-113-2] | 20% | 5% | 15% | 7% | 3% | > 50% | 24% | 0% | 40% | 26% | 25% | 0% | 36% | 28% | Death rate after 48 h (%) ([4]; dosage 9.69 μg a.i./bee): 10.0%; Death number after 24 h ([4]; dosage 9.69 μg a.i./bee): 0; Death number after 48 h ([4]; dosage 9.69 μg a.i./bee): 0 and 2; Death rate after 48 h (%) ([4]; dosage 12.6 μg a.i./bee): 15.0%; Death number after 24 h ([4]; dosage 12.6 μg a.i./bee): 0; Death number after 48 h ([4]; dosage 12.6 μg a.i./bee): 1 and 2
C=CC[C@@H]1C[C@]2(O)CCO[C@@]23C[C@@H]2O[C@@H]2C[C@H]13 [Zyj07-31-1] | 0% | 0% | 0% | 18% | 14% | 36% | 41% | 7% | 15% | > 50% | 0% | 7% | 0% | 11% | –
C=CC[C@@H]1C[C@]2(O)C[C@H](O[C@]34CCO[C@@]35CC=CC[C@H]5[C@H](CC=C)C4)O[C@@]23CC=CC[C@H]13 [Zyj07-30-1] | 0% | 0% | 0% | – | – | – | – | – | 21% | – | – | 0% | – | 8% | insecticidal activity, Caenorhabditis elegans (Caenorhabditis elegans; 100 μg/mL): 5%; fungicidal activity (growth inhibition rate), AS (Alternaria solani): 14%; fungicidal activity (growth inhibition rate), BC (Botrytis cinerea): 5%; fungicidal activity (growth inhibition rate), CA (Cercospora arachidicola): 41%; fungicidal activity (growth inhibition rate), GZ (wheat Gibberella zeae): 0%; fungicidal activity (growth inhibition rate), PP (Physalospora piricola): 83%; fungicidal activity (growth inhibition rate), PS (Pellicularia sasakii): 22%; fungicidal activity (growth inhibition rate), SS (Sclerotinia sclerotiorum): 95%; Death rate after 48 h (%) ([4]; dosage 5.12 μg a.i./bee): 0%; Death number after 24 h ([4]; dosage 5.12 μg a.i./bee): 0; Death number after 48 h ([4]; dosage 5.12 μg a.i./bee): 0; Death rate after 48 h (%) ([4]; dosage 10.6 μg a.i./bee): 5.0%; Death number after 24 h ([4]; dosage 10.6 μg a.i./bee): 0; Death number after 48 h ([4]; dosage 10.6 μg a.i./bee): 0 and 1
C=CC[C@@H]1C[C@]2(O)C(C(=O)OCC)C(=O)O[C@@]23CC=CC[C@H]13 (stereo partly drawn) [Zyj06-180] | 20% | 5% | 0% | 22% | 14% | > 50% | 30% | 20% | 19% | 15% | 45% | 0% | > 50% | 5% | Death rate after 48 h (%) ([4]; dosage 10.6 μg a.i./bee): 5.0%; Death number after 24 h ([4]; dosage 10.6 μg a.i./bee): 1 and 0; Death number after 48 h ([4]; dosage 10.6 μg a.i./bee): 1 and 0
C=CC[C@@H]1C[C@]2(O)CCO[C@@]23CC[C@H](O)C[C@H]13 [Zyj07-33] | > 30% | 15% | 10% | 27% | 24% | > 50% | 46% | 27% | 16% | > 50% | 27% | 41% | 31% | 9% | –
CO[C@@H]1CC(=O)[C@@]2(O)CC=CC[C@H]12 [Zyj06-111-2] | – | 50% | 40% | > 30% | 14% | 39% | > 50% | 47% | 31% | – | 0% | 0% | 10% | 24% | –
O=C1C[C@@]2(O)CC[C@H]3CC=CC[C@@]32O1 [Zyj07-96] | > 30% | 15% | 10% | – | > 60% | 25% | – | > 50% | 24% | – | > 60% | – | > 50% | 23% | Death rate after 48 h (%) ([4]; dosage 9.54 μg a.i./bee): 0%; Death number after 24 h ([4]; dosage 9.54 μg a.i./bee): 0; Death number after 48 h ([4]; dosage 9.54 μg a.i./bee): 0; Death rate after 48 h (%) ([4]; dosage 15.5 μg a.i./bee): 0%; Death number after 24 h ([4]; dosage 15.5 μg a.i./bee): 0; Death number after 48 h ([4]; dosage 15.5 μg a.i./bee): 0
C=CC[Si](C)(C)O[C@@]12CCO[C@@]13CC[C@H]1C[C@H]3[C@H](CC=CC[Si](C)(C)O1)C2 [Zyj07-49] | – | – | – | – | – | 34% | – | – | 16% | – | 45% | – | > 50% | 28% | pest or weed control at 100 µg/mL [1]: 20%; pest or weed control at 100 µg/mL [2]: 0%; pest or weed control at 100 µg/mL (Ostrinia furnacalis): 0%; pest or weed control at 100 µg/mL (Caenorhabditis elegans): 15%; Death rate after 48 h (%) ([4]; dosage 6.06 μg a.i./bee): 0%; Death number after 24 h ([4]; dosage 6.06 μg a.i./bee): 0; Death number after 48 h ([4]; dosage 6.06 μg a.i./bee): 0; Death rate after 48 h (%) ([4]; dosage 19.8 μg a.i./bee): 0%; Death number after 24 h ([4]; dosage 19.8 μg a.i./bee): 0; Death number after 48 h ([4]; dosage 19.8 μg a.i./bee): 0
C=CC[C@@H]1C[C@]2(OC(C)=O)C[C@@H](OC(C)=O)O[C@@]23CC=CC[C@H]13 [Zyj07-37-1] | 20% | 15% | 10% | 20% | 14% | – | 14% | 0% | 15% | > 50% | 0% | 7% | > 50% | 16% | Death rate after 48 h (%) ([4]; dosage 7.55 μg a.i./bee): 0%; Death number after 24 h ([4]; dosage 7.55 μg a.i./bee): 0; Death number after 48 h ([4]; dosage 7.55 μg a.i./bee): 0; Death rate after 48 h (%) ([4]; dosage 15.3 μg a.i./bee): 0%; Death number after 24 h ([4]; dosage 15.3 μg a.i./bee): 0; Death number after 48 h ([4]; dosage 15.3 μg a.i./bee): 0
C=CC[C@@H]1C[C@]2(O)C[C@H](O[C@]34CCO[C@@]35CC=CC[C@H]5[C@H](CC=C)C4)O[C@@]23CC=CC[C@H]13 [Zyj07-30-2] | – | – | – | – | – | – | – | – | – | – | – | – | – | 16% | insecticidal activity, Mythimna separate (Walker) ([1]; 100 μg/mL): 0%; insecticidal activity, Helicoverpa armigera (Hübner) ([2]; 100 μg/mL): 0%; insecticidal activity, Ostrinia furnacalis (Ostrinia furnacalis; 100 μg/mL): 0%; fungicidal activity (growth inhibition rate), AS (Alternaria solani): 0%; fungicidal activity (growth inhibition rate), BC (Botrytis cinerea): 34%; fungicidal activity (growth inhibition rate), CA (Cercospora arachidicola): 73%; fungicidal activity (growth inhibition rate), GZ (wheat Gibberella zeae): 27%; fungicidal activity (growth inhibition rate), PI ([3]; 50 μg/mL): 14%; fungicidal activity (growth inhibition rate), PP (Physalospora piricola): 48%; fungicidal activity (growth inhibition rate), PS (Pellicularia sasakii): 0%; fungicidal activity (growth inhibition rate), RC (Rhizoctonia cerealis): 0%; fungicidal activity (growth inhibition rate), SS (Sclerotinia sclerotiorum): 95%

Reference: US11716992B2, “5A5B6C tricyclic spirolactone derivative, preparation method therefor and use thereof” (NANKAI UNIVERSITY, priority 2017, dated 2023)
